One assay deals with MB231 Breast cells. The experiment in a line: In vitro cytotoxicity assessment (CellTiter-Glo cell viability), MB231. It counts as cell-based, human. From the text: (§1) Cells and culture conditions: Cell lines H460, HT29, A549, PANC-1, MB231, FaDu, H69 and H929 were obtained from the American Type Culture Collection (ATCC), Manassas, Va. The malignant melanoma cell line LOX IMVI was obtained from the DCTD Tumor Repository, National Cancer Institute, Frederick, Md., The cell lines were maintained in the recommended media formulations and subcultured every 3 to 4 days. To activate expression of certain targets to which the drug moiety bind and/or to form Na,K-ATPase complexes with certain proteins, cells can be cultured in recommended media plus additives such as phorbol esters, various growth factors and cytokines such as VEGF, fibroblast growth factors, human growth factors, interleukins, and tumor necrosis factors. In addition, cells can be cocultured with other cells like human fibroblasts. Additionally, microtiter plates can be coated with various proteins like fibrinogen.
(§2) Cells were incubated in the presence of test compound for 72 hr prior to cell viability testing.
A general note: ATP-based viability assays read luminescence as a measure of living cells.

Another assay concerns A549 NSCLC cells. The assay can be described thus: In vitro cytotoxicity assessment (CellTiter-Glo cell viability), A549. It counts as cell-based, human.
Text: as §1, §2

In a further assay the test system is H69 SCLC cells. The experiment in a line: In vitro cytotoxicity assessment (CellTiter-Glo cell viability), H69. The assay is classed as cell-based, human.
Text: as §1, §2

For the next assay, the system named is HT29 Colon cells. The assay can be described thus: In vitro cytotoxicity assessment (CellTiter-Glo cell viability), HT29. It counts as cell-based, human.
Text: as §1, §2

The next assay relates to H929 Myeloma cells. The assay can be described thus: In vitro cytotoxicity assessment (CellTiter-Glo cell viability), H929. It counts as cell-based, human.
Text: as §1, §2

In a further assay the test system is H460 LCLC cells. The experiment in a line: In vitro cytotoxicity assessment (CellTiter-Glo cell viability), H460. It counts as cell-based, human.
Text: as §1, §2

In assay [1] the test system is LOX Melanoma cells (LOX IMVI). The assay can be described thus: In vitro cytotoxicity assessment (CellTiter-Glo cell viability), LOX. It counts as cell-based, human.
Text: as §1, §2

The test system of another assay is PANC1 Pancreas cells. The assay can be described thus: In vitro cytotoxicity assessment (CellTiter-Glo cell viability), PANC1. The assay is classed as cell-based, human.
Text: as §1, §2

The next assay relates to FaDu Head/neck cells. The assay can be described thus: In vitro cytotoxicity assessment (CellTiter-Glo cell viability), FaDu. The assay is classed as cell-based, human.
Text: as §1, §2

Assay [2] concerns HT-29 human colon cancer xenograft. The assay can be described thus: HT-29 human colon cancer xenograft model. The assay is classed as in vivo, Hsd:Athymic Nude-Foxn1nu mice. The conditions noted are these: 15 mg/kg qd×5 (positive control); compared to vehicle. As to the method:
Briefly, to establish a human colorectal adenocarcinoma disease model, tumors from HT-29 xenograft bearing mice were minced and 8 mm^3 fragments were transplanted s.c. by trocar needle into the left flank of Hsd:Athymic Nude-Foxn1^nu mice (Harlan, Indianapolis, Ind.). Therapy with EDC2.2 was then initiated when the tumor volume in groups of 7 animals averaged ˜100 mm^3. Treatment using vehicle control and either 1 or 5 mg/kg EDC2.2 was administered i.v. using the schedule of one injection every 3 days with 4 total injected doses (q3d×4). 15 mg/kg paclitaxel dosed at qd×5 served as a positive control treatment group. Tumor volumes were measured for each group using calibrated vernier calipers and plotted against first day of tumor implant for 69 days post-implant and 41 days post-initial dose. […] Therefore, EDCs that employ targeting moieties to CD147 conjugated to agents that act on the Na,K-ATPase should be generally useful in treating colon cancers.
On the technique in general: In xenograft studies the graft and the host belong to different species.

Experimental findings from patent US20140193436A1, “EXTRACELLULAR TARGETED DRUG CONJUGATES” (priority 2011, published 2014) are described below.

Where two headings read alike, the source gives them in different places.

What is called EC50 is the concentration that produces a half-maximal response. On to `C[C@]12CC[C@H](OC3OC[C@H](N)[C@@H](O)[C@@H]3O)C=C1CCC1C2CC[C@]2(C)[C@@H](c3ccc(=O)oc3)CC[C@]12O` (stereo partly shown) [CEN09-106], for which the EC50 in the assay on MB231 Breast cells (MB231 Breast, 72 hr with test compound, read-out: EC50) worked out at 3.3 nM; with A549 NSCLC cells (A549 NSCLC, 72 hr with test compound, read-out: EC50), 0.66 nM; in the assay with H69 SCLC cells (H69 SCLC, 72 hr with test compound, read-out: EC50), 1 nM; in the assay on HT29 Colon cells (HT29 Colon, 72 hr with test compound, read-out: EC50), 2.9 nM; in the assay on H929 Myeloma cells (H929 Myeloma, 72 hr with test compound, read-out: EC50) it was 3.1 nM; with H460 LCLC cells (H460 LCLC, 72 hr with test compound, read-out: EC50), 1.4 nM. Further, the EC50 in assay [1] (LOX Melanoma, 72 hr with test compound, read-out: EC50) is 2.5 nM; with PANC1 Pancreas cells (PANC1 Pancreas, 72 hr with test compound, read-out: EC50), 1.1 nM; in the assay with FaDu Head/neck cells (FaDu Head/neck, 72 hr with test compound, read-out: EC50), 3.1 nM.

`C[C@]12CC[C@H](O[C@H]3OC[C@H](NC(=O)CCOCCOCCOCCOCCOCCOCCOCCOCCOCCOCCOCCOCCOCCOCCOCCOCCOCCOCCOCCOCCOCCOCCOCCOCCNC(=O)CCN4C(=O)C=CC4=O)[C@H](O)C3O)C=C1CCC1C2CC[C@]2(C)[C@@H](c3ccc(=O)oc3)CC[C@]12O` (stereo partly shown) [CEN010-105]: the EC50 in the assay with MB231 Breast cells (Homo sapiens, 72 h) is 109 nM; in the assay on A549 NSCLC cells (Homo sapiens, A549, 72 h), 31.3 nM; with H69 SCLC cells (Homo sapiens, 72 h) it was 26.6 nM; in the assay on HT29 Colon cells (Homo sapiens, HT-29, 72 h), 60 nM; in the assay with H929 Myeloma cells (Homo sapiens, NCI-H929, 72 h) it was 89.6 nM; with H460 LCLC cells (Homo sapiens, NCI-H460, 72 h), 76.9 nM. The EC50 stood at 71 nM in assay [1] (Homo sapiens, LOX, 72 h); 27.1 nM in the assay on PANC1 Pancreas cells (Homo sapiens, PANC-1, 72 h); 75.5 nM with FaDu Head/neck cells (Homo sapiens, FaDu, 72 h).

Take `CC(=O)O[C@H]1C(=O)[C@@]2(C)[C@H]([C@H](OC(=O)c3ccccc3)[C@]3(O)C[C@H](OC(=O)[C@H](O)[C@@H](NC(=O)c4ccccc4)c4ccccc4)C(C)=C1C3(C)C)[C@]1(OC(C)=O)CO[C@@H]1C[C@@H]2O` [Paclitaxel, paclitaxel]: in assay [2], the “growth inhibition of the tumor” value turned out to be 85%.
